Results reported in patent US12030897B2, “Pyrrolo[2,1-f][1,2,4]triazine derivatives serving as selective HER2 inhibitors and application thereof” (MEDSHINE DISCOVERY INC., priority 2018, dated 2024).
Read-outs that look alike come from different tables or passages of the source.

Tests used:
HER4 (ErbB4) = HER4 (ErbB4) (Homo sapiens (Human), UniProt Q15303); experiment: In vitro enzyme activity, HER4 (ErbB4), [γ-33P]ATP filter assay; type: biochemical
Experimental: The object of this test is to detect the in vitro inhibitory activity of the compound against HER1 (ErbB1), HER2 (ErbB2) and HER4 (ErbB4). The enzymes used in this test were human ErbB1, ErbB2 and ErbB4. Eurofins Pharma Discovery Service provided the activity detection method, and the results of the inhibitory activity of the tested compound against HER1, HER2 and HER4 were shown in Table 1.
Experimental Steps and Methods (96-Well Plate):
5-fold diluted tested compound buffer (5 μL), peptide substrate poly(Glu, Tyr) (4:1) (2.5 μL), ErbB (4-20 ng, 2.5 μL), MnCl2 (50 mM, 1.25 μL), dH2O (3.75 μL) and [γ-^33P]ATP (10 μL) were added, and incubated at 30° C. for 10 min. 3% phosphoric acid was added to terminate the reaction, and 10 μL of the specimen was transferred to Filtermate A. The filter was washed with 75 mM phosphoric acid for three times and methanol once, and transferred to a sealed plastic bag, and a scintillation fluid mixture (4 mL) was added, The intensity of the emitted photons was detected on the scintillation luminescence counter. The photon intensity of the enzyme sample was compared with the photon intensity of the internal control sample, and the level of photon intensity reflected the strength of the tyrosine kinase activity.

[1] = Pharmacokinetic properties in mice; type: in vivo; settings: female, Balb/c; for clearance / Vd / bioavailability: plasma, mouse; for Vd: read-out: Vdss; for bioavailability: read-out: F (bioavailability); for AUC(0-inf) / AUC(0-t) / half-life / Cmax: mouse plasma
Experimental: The tested compound was dissolved in 10% DMSO/45% PEG400/45% water, vortexed and sonicated to prepare a clear solution with the corresponding concentration, which was filtered through a millipore filter for use. 18 to 20 grams of Balb/c female mice were selected, and the candidate compound solution was administered intravenously at a dose of 1 or 2 mg/kg. The tested compound was dissolved in 10% NMP/10% polyethylene glycol-15-hydroxystearate/80% water, vortexed and sonicated to prepare a clear solution with the corresponding concentration, which was filtered through a millipore filter for use. 18 to 20 grams of Balb/c female mice were selected, and the candidate compound solution was administered orally at a dose of 2 or 10 mg/kg. The whole-blood for a certain period of time was collected to prepare plasma. The drug concentration was analyzed by the LC-MS/MS method, and the pharmacokinetic parameters were calculated by the Phoenix WinNonlin software (Pharsight, USA).

[2] = Concentration of Example 4 in plasma, tumor tissue and brain tissue (NCI-N87 model, day 21); type: in vivo, BALB/c nude mice; settings: BALB/c nude, mouse, 100 mg/kg; for concentration at 0.5 h: day 21, 0.5 h after last administration; for concentration at 1 h: day 21, 1 h after last administration; for concentration at 2 h: day 21, 2 h after last administration
Experimental: On day 21, the whole blood, tumor tissue, and brain tissue of two mice were collected 0.5 hour, 1 hour, and 2 hours after the last administration. The whole blood was centrifuged to prepare plasma, and the tumor tissue and brain tissue were homogenized to prepare tissue homogenate, and the drug concentration in plasma and tissue homogenate was analyzed by the LC-MS/MS method.

[3] = brain tissue, read-out: Drug concentration, brain tissue
[4] = plasma, read-out: Drug concentration, plasma
[5] = tumor tissue, read-out: Drug concentration, tumor tissue

Chain of HER4 (ErbB4) (Q15303 26-1308): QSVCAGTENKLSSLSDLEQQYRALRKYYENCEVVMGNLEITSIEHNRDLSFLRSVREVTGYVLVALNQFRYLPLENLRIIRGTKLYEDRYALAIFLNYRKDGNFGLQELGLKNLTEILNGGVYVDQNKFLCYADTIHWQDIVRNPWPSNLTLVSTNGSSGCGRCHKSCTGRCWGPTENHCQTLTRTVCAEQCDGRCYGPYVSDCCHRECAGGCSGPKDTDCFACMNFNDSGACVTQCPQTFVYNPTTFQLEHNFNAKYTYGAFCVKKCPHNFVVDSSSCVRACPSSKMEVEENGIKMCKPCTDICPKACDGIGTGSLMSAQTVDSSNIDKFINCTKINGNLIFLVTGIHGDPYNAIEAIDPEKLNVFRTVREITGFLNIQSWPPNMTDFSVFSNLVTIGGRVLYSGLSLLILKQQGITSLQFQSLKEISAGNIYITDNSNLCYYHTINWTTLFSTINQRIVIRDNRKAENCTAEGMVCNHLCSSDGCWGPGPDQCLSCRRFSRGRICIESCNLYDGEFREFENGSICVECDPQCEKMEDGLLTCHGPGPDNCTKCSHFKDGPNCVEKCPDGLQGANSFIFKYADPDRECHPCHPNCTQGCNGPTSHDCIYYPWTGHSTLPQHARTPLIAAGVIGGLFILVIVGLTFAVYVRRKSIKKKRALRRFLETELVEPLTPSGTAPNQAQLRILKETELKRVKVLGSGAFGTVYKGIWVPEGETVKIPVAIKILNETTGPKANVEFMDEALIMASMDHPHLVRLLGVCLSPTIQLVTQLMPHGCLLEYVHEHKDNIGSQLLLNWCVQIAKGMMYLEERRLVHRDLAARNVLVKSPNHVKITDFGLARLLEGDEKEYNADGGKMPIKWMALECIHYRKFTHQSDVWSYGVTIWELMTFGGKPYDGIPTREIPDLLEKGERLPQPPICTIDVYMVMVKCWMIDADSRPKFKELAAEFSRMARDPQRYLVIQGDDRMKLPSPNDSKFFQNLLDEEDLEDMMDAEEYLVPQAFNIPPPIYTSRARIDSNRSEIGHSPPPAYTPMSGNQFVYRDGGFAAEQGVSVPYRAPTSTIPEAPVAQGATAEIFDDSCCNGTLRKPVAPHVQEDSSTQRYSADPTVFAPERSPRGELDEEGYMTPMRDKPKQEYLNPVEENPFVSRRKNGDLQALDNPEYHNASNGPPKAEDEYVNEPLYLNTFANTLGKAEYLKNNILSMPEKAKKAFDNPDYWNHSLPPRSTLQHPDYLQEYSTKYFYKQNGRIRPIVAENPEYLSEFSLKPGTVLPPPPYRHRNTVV

## Cc1cc(Nc2ncnn3ccc(CN4CCC(N)CC4)c23)ccc1Oc1ccn2ncnc2c1 [Example 4]
HER4 (ErbB4)
  IC50: 156 nM
[1]; IV 1 mg/kg
  clearance: 19.2 mL/min/kg
  Vd: 2.3 L/kg
  AUC(0-inf): 1.57 µM·h
  AUC(0-t): 1.52 µM·h
  half-life: 1.65 h
[1]; IV 2 mg/kg
  clearance: 33 mL/min/kg
  Vd: 2.81 L/kg
  AUC(0-inf): 2.15 µM·h
  AUC(0-t): 2.13 µM·h
  half-life: 1.34 h
[1]; PO 2 mg/kg
  bioavailability: 22.7%
  AUC(0-inf): 0.95 µM·h
  AUC(0-t): 0.928 µM·h
  Cmax: 0.306 µM
  half-life: 1.37 h
[1]; PO 10 mg/kg
  bioavailability: 40.2%
  AUC(0-inf): 4.33 µM·h
  AUC(0-t): 4.28 µM·h
  Cmax: 1.25 µM
  half-life: 1.08 h
[2]; [3]
  concentration at 0.5 h: 0.538 µM
  concentration at 1 h: 0.631 µM
  concentration at 2 h: 1.01 µM
[2]; [4]
  concentration at 0.5 h: 8.6 µM
  concentration at 1 h: 7.58 µM
  concentration at 2 h: 12.8 µM
[2]; [5]
  concentration at 0.5 h: 9.45 µM
  concentration at 1 h: 11.2 µM
  concentration at 2 h: 21.4 µM
